Patent EP0073100B1, “Beta-lactam compounds, their preparation and their use” (BEECHAM GROUP PLC, priority 1981, dated 1983)
≈ marks a conversion by molar mass, not a printed value.

Legend:
Test in all cases: MIC, growth inhibition in nutrient broth
Assay type in all cases: cell-based
[1] = tested on: E. coli; conditions: Escherichia coli
[2] = tested on: Klebsiella aerogenes
[3] = tested on: Proteus mirabilis
[4] = tested on: S. typhimurium; conditions: Salmonella enterica
[5] = tested on: B. subtilis; conditions: Bacillus subtilis
[6] = tested on: Staph. aureus Oxford; conditions: Staphylococcus aureus
[7] = tested on: Staph. aureus Russell; conditions: Staphylococcus aureus, Staph. aureus Russell (β-lactamase-producing benylpenicillin-resistant strain)
[8] = tested on: Strep. faecalis; conditions: Enterococcus faecalis
[9] = tested on: Strep. pyogenes; conditions: Streptococcus pyogenes

## COC(=O)C1C[C@@H]2[C@H](NC(=O)COc3ccccc3)C(=O)N2[C@H]1C(=O)O (mixture of isomers) [compound 17, (2RS, 5RS, 6SR) 1-Aza-3-methoxycarbonyl-6-phenoxyacetamidobicyclo [3.2.0] -heptan-7-one-2-carboxylic acid]
[1]
  MIC: 250 µg/mL (≈ 690 µM)
[2]
  MIC: 250 µg/mL (≈ 690 µM)
[3]
  MIC: 62 µg/mL (≈ 171 µM)
[4]
  MIC: 250 µg/mL (≈ 690 µM)
[5]
  MIC: 2 µg/mL (≈ 5.52 µM)
[6]
  MIC: < 0.5 µg/mL
[7]
  MIC: 62 µg/mL (≈ 171 µM)
[8]
  MIC: 8 µg/mL (≈ 22.1 µM)
[9]
  MIC: < 10.5 µg/mL
